Data: patent US20150126465A1, “PROCESS FOR PRODUCING DERIVATIVES OF PYROSTEGIA VENUSTA, DERIVATIVES OF PYROSTEGIA VENUSTA, PHARMACEUTICAL COMPOSITIONS AND ITS USES” (priority 2011, published 2015)
Values after ≈ are worked out from the molar mass of the structure shown. Where two headings read alike, the source gives them in different places.

Experiments:
Format in all cases: cell-based
C. Albicans USP 2 = assay: MIC/CFM against Candida sp. strains; details: Table 14, C. Albicans USP 2
Candida krusei ATCC 6258 [1] = assay: MIC/CFM by microdilution (CLSI M27-A2)
[2] = system: Candida tropicalis USP B3; assay: MIC by microdilution (CLSI M27-A2)
[3] = system: Candida parapsilosis ATCC 22019; assay: MIC/CFM by microdilution (CLSI M27-A2)
[4] = system: Candida albicans USP 1565; assay: MIC by microdilution (CLSI M27-A2)
[5] = system: Candida parapsilosis USP 1933; assay: MIC/CFM by microdilution (CLSI M27-A2)
[6] = system: Candida albicans ATCC 10231; assay: MIC/CFM by microdilution (CLSI M27-A2); details: Candida albicans, ATCC10231, read-out: MIC
[7] = system: Trichophyton menthagrophyton ATCC 9533; assay: MIC by microdilution, filamentous fungi (CLSI M38-A); details: Table 13, Trichophyton menthagrophyton ATCC 9533, 7 days, 28° C.
Method: (§1) Pure substances termed P1 and P2 previously dissolved in 20% DMSO, were diluted in RPMI medium, with final concentrations of 96 μg.mL-1. […] Cultures of filamentous fungi described below were inoculated in Agar-Batata Dextrose medium and inoculated for 7 days, at 28° C. Colonies of cultures inoculated for 7 days in an oven at 28° C. were shrouded with 0.85% saline solution, scraped and then transferred to conical tubes. After resting for 5 minutes, the supernatant was transferred to new conical tubes for subsequent quantification in spectrophotometer, at 530 nm, with the transmittance adjustment of 80-82% for A. niger and 70% for other microorganisms. After adjustment, there was a 1:50 dilution in RPM. The determination of Minimum Inhibitory Concentration was performed after 7 days, at 28° C. After the incubation period, aliquots of 96-well plates were transferred to Petri plates with Potato Dextrose Agar, to determine the Minimum Fungicidal Concentration. Plates were inoculated for more 7 days, at 28° C.

[8] = system: Microsporum canis ATCC 32903; assay: as above; details: Table 13, Microsporum canis ATCC 32903, 7 days, 28° C.
Method: as §1

[9] = system: Phomopsis longicolla (soy isolate); assay: as above; details: Table 13, Phomopsis longicolla- soy, 7 days, 28° C.
Method: as §1

Candida krusei USP 2223 = assay: MIC by microdilution (CLSI M27-A2)
[10] = system: Candida albicans OF-M3-20; assay: MIC/CFM by microdilution (CLSI M27-A2)
Method: (§2) Pure substances termed P1 and P2 previously dissolved in 20% DMSO, were diluted in RPMI medium, with final concentrations of 96 μg.mL-1. […] The same was also tested individually, diluted in RPMI medium, with initial concentration of 1 μL.mL-1. […] Cultures of Candida sp. were prepared and standardized in […] saline solution at 0.85%. For inoculums standardization, a spectrophotometer equipment was used, with wavelength at 530 nm and absorbance adjustment between 0.130 and 0.150, having as white the saline solution free of inoculum or any other contaminant, corresponding to concentrations of 10^6 CFU/mL. In this condition the inoculum “mother” was diluted 50 times and from this inoculum “child” the dilution was performed 20 times to obtain a standard inoculum in 10^3 cells per well. […] To aid in the growth view, were added to the wells dye 50 μL 2,3,5-triphenyltetrazolium chloride (TTC) at 5 mg.mL “1, being performed the readings after 4 hours of incubation. Prior to the addition of dye, aliquots of 96-well plate were transferred to Petri with Agar-Sabouraud Dextrose to determine the Minimum Fungicidal Concentration. Plates were incubated for 24 hours at 35° C.

Candida albicans USP 1 = assay: MIC/CFM by microdilution (CLSI M27-A2)
Method: as §2

[11] = system: Candida albicans OF-M7-19; assay: MIC/CFM by microdilution (CLSI M27-A2)
Method: as §2

[12] = system: Candida tropicalis USP 1658; assay: MIC by microdilution (CLSI M27-A2)
[13] = system: Candida guilhermondii USP; assay: MIC/CFM by microdilution (CLSI M27-A2)
Candida glabrata ATCC = assay: MIC/CFM against Candida sp. strains; details: Nakaseomyces glabratus; Table 14, Candida glabrata ATCC
[14] = system: Candida tropicalis USP B3; assay: Diffusion in Agar, halo of inhibition; design: unit not given here; details: 20 μL per hole, 48 hours at 37° C., controls 80 μg · mL^−1
Method: (§3) Cultures of yeasts described below were inoculated in Agar-Sabouraud Dextrose medium and inoculated for 24 hours, at 35° C. Cultures of Candida sp. were prepared and standardized in […] saline solution at 0.85%. For inoculum standardization a spectrophotometer equipment was used with wavelength at 530 nm and absorbance adjustment between 0.130 and 0.150, having as white the saline solution free of inoculum or any other contaminant, corresponding to concentrations of 10^6 CFU/mL. In Petri plates (150×15 mm), were distributed RPMI medium with 0.8% Agar. To these plates, it was added 1 mL of the microorganism suspension in the concentration of 10^6 CFU/mL. After inundation, the suspension excess was removed with the aid of a pipette. With the plate surface already dry, hole of approximately 6.0 mm were made, adding to each hole 20 μL of the samples and control. The plates were then incubated for 48 hours at 37° C., when halo of inhibitions were measured.

[15] = system: Candida guilhermondii USP; assay: Diffusion in Agar, halo of inhibition; design: unit not given here; details: Candida guilhemondii USP; 20 μL per hole, 48 hours at 37° C.; controls 80 μg · mL^−1
Method: as §3

[16] = system: Candida parapsilosis ATCC 22019; assay: Diffusion in Agar, halo of inhibition; design: unit not given here; details: 20 μL per hole, 48 hours at 37° C., controls 80 μg · mL^−1
Method: as §3

[17] = system: Candida albicans ATCC 10231; assay: Diffusion in Agar, halo of inhibition; design: unit not given here; details: 20 μL per hole, 48 hours at 37° C., controls 80 μg · mL^−1
Method: as §3

Candida krusei ATCC 6258 [18] = assay: Diffusion in Agar, halo of inhibition; design: unit not given here; details: 20 μL per hole, 48 hours at 37° C., controls 80 μg · mL^−1
Method: as §3

[19] = system: Trichophyton rubrum ATCC MYA-3108; assay: MIC by microdilution, filamentous fungi (CLSI M38-A); details: Table 11, Trichophyton rubrum ATCC MYA-3108

C[C@@H]1O[C@@H](O[C@@H]2[C@@H](O)[C@H](OCCc3ccc(O)c(O)c3)O[C@H](CO)[C@H]2OC(=O)/C=C/c2ccc(O)c(O)c2)[C@H](O)[C@H](O)[C@H]1O [Fraction P2, verbascoside]
MIC (C. Albicans USP 2): 1.5 µg/mL (≈ 2.4 µM)
MIC (Candida krusei ATCC 6258 [1]; Pichia kudriavzevii, ATCC6258, Table 12, C. krusei ATCC 6258, 48 h, 35° C., read-out: MIC): 0.375 µg/mL (≈ 0.6 µM)
MIC (Candida krusei ATCC 6258 [1]; Pichia kudriavzevii, ATCC6258, Table 14, C. krusei ATCC, read-out: MIC): 1.5 µg/mL (≈ 2.4 µM)
MIC ([2]; Candida tropicalis, USPB3, Table 14, C. Tropicalis UPS B3, read-out: MIC): 1.5 µg/mL (≈ 2.4 µM)
MIC ([3]; Lodderomyces parapsilosis, ATCC22019, Table 12, C. parapsilosis ATCC 22019, 48 h, 35° C., read-out: MIC): 0.375 µg/mL (≈ 0.6 µM)
MIC ([3]; Lodderomyces parapsilosis, ATCC22019, Table 14, C. parapsilosis ATCC 22019, read-out: MIC): 1.5 µg/mL (≈ 2.4 µM)
MIC ([4]; Candida albicans, USP1565, Table 12, C. albicans USP 1565, 48 h, 35° C., read-out: MIC): 0.375 µg/mL (≈ 0.6 µM)
MIC ([5]; Lodderomyces parapsilosis, USP1933, Table 12, C. parapsilosis USP 1933, 48 h, 35° C., read-out: MIC): 0.75 µg/mL (≈ 1.2 µM)
MIC ([5]; Lodderomyces parapsilosis, USP1933, Table 14, C. parapsilosis USP 1933 ATCC, read-out: MIC): 1.5 µg/mL (≈ 2.4 µM)
MIC ([6]; Table 12, C. albicans ATCC 10231, 48 h, 35° C.): 3 µg/mL (≈ 4.8 µM)
MIC ([6]; Table 14, C. Albicans ATCC 10231): 1.5 µg/mL (≈ 2.4 µM)
MIC ([7]; ATCC9533, 168 h, read-out: MIC): 48 µg/mL (≈ 76.9 µM)
MIC ([8]; ATCC32903, 168 h, read-out: MIC): 12 µg/mL (≈ 19.2 µM)
MIC ([9]; Diaporthe longicolla, 168 h, read-out: MIC): 16 µg/mL (≈ 25.6 µM)
MIC (Candida krusei USP 2223; Pichia kudriavzevii, USP2223, Table 12, C. krusei USP 2223, 48 h, 35° C., read-out: MIC): 0.75 µg/mL (≈ 1.2 µM)
MIC (Candida krusei USP 2223; Pichia kudriavzevii, USP2223, Table 14, C. krusei USP 2223, read-out: MIC): 1.5 µg/mL (≈ 2.4 µM)
MIC ([10]; Candida albicans, OFM320, Table 12, C. albicans OF M3-20, 48 h, 35° C., read-out: MIC): 0.375 µg/mL (≈ 0.6 µM)
MIC ([10]; Candida albicans, OFM320, Table 14, C. Albicans OF M3-20, read-out: MIC): 1.5 µg/mL (≈ 2.4 µM)
MIC (Candida albicans USP 1; Candida albicans, USP1, Table 12, C. albicans USP 1, 48 h, 35° C., read-out: MIC): 0.375 µg/mL (≈ 0.6 µM)
MIC (Candida albicans USP 1; Candida albicans, USP1, Table 14, C. Albicans USP 1, read-out: MIC): 1.5 µg/mL (≈ 2.4 µM)
MIC ([11]; Candida albicans, OFM719, Table 12, C. albicans OF M7-19, 48 h, 35° C., read-out: MIC): 0.375 µg/mL (≈ 0.6 µM)
MIC ([11]; Candida albicans, OFM719, Table 14, C. Albicans OF M7-19, read-out: MIC): 0.75 µg/mL (≈ 1.2 µM)
MIC ([12]; Candida tropicalis, USP1658, Table 12, C. tropicalis USP 1658, 48 h, 35° C., read-out: MIC): 1.5 µg/mL (≈ 2.4 µM)
MIC ([13]; Candida, Table 12, C. guilhermondii USP, 48 h, 35° C., read-out: MIC): 0.375 µg/mL (≈ 0.6 µM)
MIC ([13]; Table 14, Candida guilhermondi USPATCC, read-out: MIC): 0.75 µg/mL (≈ 1.2 µM)
MIC (Candida glabrata ATCC): 0.75 µg/mL (≈ 1.2 µM)

Nistatina
MIC (Candida krusei ATCC 6258 [1]; Table 11, C. krusei ATCC 6258): 6.25 µg/mL
MIC (Candida krusei ATCC 6258 [1]; Table 12, C. krusei ATCC 6258, 48 h, 35° C.): 6.25 µg/mL
MIC ([2]; Table 11, C. Tropicalis USP B3): 6.25 µg/mL
Halo of inhibition [14]: 0
Halo of inhibition [15]: 1.1
Halo of inhibition [16]: 1.6
Halo of inhibition [17]: 1.5
Halo of inhibition (Candida krusei ATCC 6258 [18]): 1.2
MIC ([3]; Table 12, C. parapsilosis ATCC 22019, 48 h, 35° C.): 6.25 µg/mL
MIC ([4]; Table 11, C. Albicans USP 1565): 6.25 µg/mL
MIC ([4]; Table 12, C. albicans USP 1565, 48 h, 35° C.): 6.25 µg/mL
MIC ([5]; Table 11, C. parapsilosis USP 1933): 6.25 µg/mL
MIC ([5]; Table 12, C. parapsilosis USP 1933, 48 h, 35° C.): 12.5 µg/mL
MIC [7]: 12.5 µg/mL
MIC [8]: 12.5 µg/mL
MIC [9]: 3.125 µg/mL
MIC [19]: 3.125 µg/mL
MIC (Candida krusei USP 2223; Table 11, C. krusei ATCC 2223): 6.25 µg/mL
MIC (Candida krusei USP 2223; Table 12, C. krusei USP 2223, 48 h, 35° C.): 6.25 µg/mL
MIC ([10]; Table 12, C. albicans OF M3-20, 48 h, 35° C.): 12.5 µg/mL
MIC (Candida albicans USP 1; Table 12, C. albicans USP 1, 48 h, 35° C.): 6.25 µg/mL
MIC ([11]; Table 12, C. albicans OF M7-19, 48 h, 35° C.): 12.5 µg/mL
MIC ([12]; Table 11, C. Tropicalis USP 1658): 6.25 µg/mL
MIC ([12]; Table 12, C. tropicalis USP 1658, 48 h, 35° C.): 6.125 µg/mL
MIC ([13]; Table 11, C. guilhermondii USP): 3.125 µg/mL
MIC ([13]; Table 12, C. guilhermondii USP, 48 h, 35° C.): 6.25 µg/mL
